From the supplement of paper PMC10307832

Columns and labels:
Assay in all cases: relative viability (nuclei count vs DMSO), 5 days (fraction); higher = more cells survive
[1] = compound: CS(=O)(=O)c1ccc(-c2cnc(N)c(C(=O)Nc3ccccc3)n2)cc1 [VE-821] + Nc1nc2[nH]cc(CCc3ccc(C(=O)N[C@@H](CCC(=O)O)C(=O)O)cc3)c2c(=O)[nH]1 [Pemetrexed] (partner 0.2 µM)
In short: (§1)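 Lung cancer cell lines were seeded in 1536-well plates and dosed by pin tool the next day, with either a single drug or a fixed anchor-drug dose combined with five library-drug doses (not always all listed) spaced in √10 steps. Five days later, one step fixed the cells and stained their nuclei (final 0.05% Triton X-100, 1% formaldehyde, 1 ug/ml Hoechst), and nuclei were counted on 4× images. Relative viability is the nuclei count in treated wells divided by the count in vehicle wells, and each value is the median of duplicate plates.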

[2] = compound: CS(=O)(=O)c1ccc(C(=O)Nc2ccc(Cl)c(-c3ccccn3)c2)c(Cl)c1 [Vismodegib] + CC(C)C[C@H](NC(=O)[C@H](Cc1ccccc1)NC(=O)c1cnccn1)B(O)O [Bortezomib] (partner 0.002 µM)
In short: as §1

[3] = compound: CS(=O)(=O)c1ccc(C(=O)Nc2ccc(Cl)c(-c3ccccn3)c2)c(Cl)c1 [Vismodegib] + CCNC(=O)c1noc(-c2cc(C(C)C)c(O)cc2O)c1-c1ccc(CN2CCOCC2)cc1 [Luminespib] (partner 0.01 µM)
In short: as §1

[4] = compound: N#CC[C@H](C1CCCC1)n1cc(-c2ncnc3[nH]ccc23)cn1 [Ruxolitinib] + CCNC(=O)c1noc(-c2cc(C(C)C)c(O)cc2O)c1-c1ccc(CN2CCOCC2)cc1 [Luminespib] (partner 0.01 µM)
In short: as §1

Cell Line	relative viability ([1]; first compound 0.08 µM)	relative viability ([1]; first compound 0.253 µM)	relative viability ([1]; first compound 0.8 µM)	relative viability ([1]; first compound 2.53 µM)	relative viability ([1]; first compound 8 µM)	relative viability ([2]; first compound 0.08 µM)	relative viability ([2]; first compound 0.253 µM)	relative viability ([2]; first compound 0.8 µM)	relative viability ([2]; first compound 2.53 µM)	relative viability ([2]; first compound 8 µM)	relative viability ([3]; first compound 0.08 µM)	relative viability ([3]; first compound 0.253 µM)	relative viability ([3]; first compound 0.8 µM)	relative viability ([3]; first compound 2.53 µM)	relative viability ([3]; first compound 8 µM)	relative viability ([4]; first compound 0.08 µM)	relative viability ([4]; first compound 0.253 µM)	relative viability ([4]; first compound 0.8 µM)	relative viability ([4]; first compound 2.53 µM)	relative viability ([4]; first compound 8 µM)
HOP-62	0.305	0.336	0.244	0.235	0.223	0.863	0.657	0.882	0.743	0.637	0.916	0.914	0.981	0.93	0.877	0.879	0.946	0.934	0.927	0.686
LC-2-ad	0.265	0.286	0.272	0.264	0.24	1.06	0.987	0.981	0.947	0.871	1.01	0.957	0.975	0.955	1.06	–	1	1	0.693	0.688
LCLC-97TM1	0.191	0.186	0.164	0.189	0.125	0.741	0.652	0.804	0.694	0.671	0.699	0.725	0.746	0.76	0.826	0.617	0.657	0.78	0.626	0.904
LCLC-103H	0.47	0.439	0.518	0.475	0.437	1.05	1.03	1.07	0.99	0.983	1.03	0.968	0.93	0.884	1.07	0.851	0.862	0.959	1.04	0.956
LOU-NH91	0.385	0.355	0.345	0.323	0.4	0.507	0.537	0.471	0.389	0.498	0.28	0.334	0.352	0.366	0.301	–	0.361	0.35	0.316	0.382
LU99A	0.191	0.156	0.16	0.125	0.113	1.12	1.13	1.25	1.09	1.15	0.257	0.233	0.323	0.257	0.305	0.224	0.265	0.353	0.23	0.23
LXF-289	0.902	0.928	0.936	1.01	0.847	0.985	0.977	1.02	0.965	0.944	0.625	0.691	0.764	0.611	0.738	0.608	0.784	0.732	0.674	0.628
NCI-H23	0.919	0.838	0.55	0.463	0.272	1.16	1.01	0.931	0.986	0.944	0.25	–	0.198	0.258	0.227	0.195	0.209	0.242	0.214	0.191
NCI-H322M	0.616	0.639	0.542	0.532	0.385	1.25	1.12	1.22	1.23	1.13	0.876	0.797	0.881	0.812	0.818	0.806	0.927	0.918	0.984	1.17
NCI-H441	0.283	0.264	0.24	0.276	0.264	0.535	0.588	0.522	0.319	0.523	0.348	0.281	0.284	0.304	0.38	0.299	0.424	0.319	0.472	0.317
NCI-H460	0.0644	0.0622	0.0609	0.056	0.0393	1.13	0.929	1.19	0.998	1.2	0.0373	0.0299	0.038	0.0291	0.0297	0.0343	0.0362	0.0405	0.0294	0.027
NCI-H520	0.75	0.657	0.582	0.361	0.223	0.443	0.812	0.619	0.697	0.668	0.24	0.225	0.198	0.207	0.212	0.211	0.209	0.236	0.215	0.241
NCI-H596	0.511	0.48	0.485	0.454	0.374	0.923	1.09	0.976	1.18	1.05	1.04	0.96	1.15	1.05	1.02	1.03	0.889	1.4	1.17	1
NCI-H647	0.157	0.139	0.125	0.0986	0.0738	1.01	0.925	1.12	1.05	1.1	0.505	0.227	0.219	0.125	0.181	0.18	0.228	0.367	0.0851	0.144
NCI-H650	0.934	0.846	1.02	0.9	0.835	0.855	0.735	0.795	0.732	0.687	0.843	0.791	0.638	0.802	0.865	–	0.844	0.843	0.804	0.658
NCI-H661	0.979	0.923	0.84	0.744	0.571	0.821	0.806	0.756	0.837	0.829	0.945	0.909	0.934	0.876	0.889	0.892	1.01	0.93	0.94	0.768

Cell Line	relative viability ([1]; first compound 0.08 µM)	relative viability ([1]; first compound 0.253 µM)	relative viability ([1]; first compound 0.8 µM)	relative viability ([1]; first compound 2.53 µM)	relative viability ([1]; first compound 8 µM)	relative viability ([2]; first compound 0.08 µM)	relative viability ([2]; first compound 0.253 µM)	relative viability ([2]; first compound 0.8 µM)	relative viability ([2]; first compound 2.53 µM)	relative viability ([2]; first compound 8 µM)	relative viability ([3]; first compound 0.08 µM)	relative viability ([3]; first compound 0.253 µM)	relative viability ([3]; first compound 0.8 µM)	relative viability ([3]; first compound 2.53 µM)	relative viability ([3]; first compound 8 µM)	relative viability ([4]; first compound 0.08 µM)	relative viability ([4]; first compound 0.253 µM)	relative viability ([4]; first compound 0.8 µM)	relative viability ([4]; first compound 2.53 µM)	relative viability ([4]; first compound 8 µM)
NCI-H838	0.259	0.264	0.21	0.17	0.159	0.603	1.11	0.679	0.817	1.05	0.247	0.271	0.33	0.409	0.331	0.218	0.233	0.316	0.239	0.221
NCI-H1355	1.15	0.976	0.888	1.05	0.903	1.23	1.18	1.12	1.1	1.11	0.634	0.714	0.687	0.794	0.688	0.751	0.721	0.772	0.616	0.687
NCI-H1437	0.331	0.316	0.281	0.173	0.187	0.408	0.597	0.594	0.541	0.539	0.956	1.13	1.1	1.09	1.07	1.16	1.26	1.2	1.13	0.908
NCI-H1563	0.778	0.7	0.613	0.761	0.481	0.845	0.881	0.904	0.922	0.906	0.468	0.48	0.529	0.545	0.571	0.535	0.515	0.549	0.505	0.505
NCI-H1650	0.344	0.355	0.289	0.386	0.307	0.196	0.314	0.198	0.205	0.191	0.214	0.192	0.212	0.178	0.18	–	0.196	0.198	0.214	0.197
NCI-H1651	0.576	0.616	0.625	0.554	0.545	1	0.936	0.953	0.619	0.882	0.816	0.819	0.86	0.866	0.791	0.883	0.902	0.979	0.73	0.726
NCI-H1666	0.941	0.841	0.779	0.558	0.571	0.755	0.765	0.906	0.722	0.956	0.985	0.986	1.15	0.999	1.06	1	1.1	1.05	1.01	0.972
NCI-H1734	0.413	0.391	0.374	0.351	0.297	0.89	0.835	0.949	0.858	1.03	0.19	0.186	0.166	0.198	0.189	0.167	0.197	0.198	0.162	0.185
NCI-H1755	0.464	0.655	0.431	0.361	0.247	0.903	0.947	1.05	0.966	1.01	0.403	0.327	0.39	0.366	0.461	0.452	0.45	0.699	0.351	0.362
NCI-H1792	1.19	0.59	0.865	0.996	0.568	0.953	0.974	0.929	0.946	0.93	0.344	0.517	0.342	0.467	0.414	0.407	0.447	0.473	0.517	0.434
NCI-H1915	0.499	0.432	0.344	0.311	0.23	1.05	0.976	0.985	0.905	0.953	0.759	0.758	0.785	0.837	0.769	0.711	0.762	0.83	0.578	0.503
NCI-H1975	0.297	0.282	0.264	0.213	0.167	0.381	0.396	0.374	0.373	0.398	0.143	0.185	0.205	0.218	0.259	0.172	0.191	0.241	0.232	0.153
NCI-H1993	0.6	0.596	0.35	0.638	0.601	1.03	1.24	0.983	1.05	1.08	0.799	0.865	0.747	0.814	0.796	0.758	0.784	0.863	0.508	0.803
NCI-H2009	1.03	1	1.02	0.851	0.732	0.947	0.986	0.976	0.967	1.04	0.873	0.968	1.03	1.01	1.04	0.99	1.1	0.99	0.93	0.817
NCI-H2023	0.24	0.202	0.17	0.123	0.0894	0.906	0.889	0.915	1.02	0.943	0.634	0.789	0.891	0.68	0.794	0.73	0.74	0.674	0.438	0.568
NCI-H2085	0.936	0.848	0.61	–	0.612	1.08	0.985	1.06	1.1	1.02	0.393	0.441	0.423	0.434	0.474	0.418	0.48	0.486	0.403	0.352
